Holding throughout (type): binding
Test [1] deals with T1, Gal-3-g1-L4 (Gal-3 CRD-165AHGDA169) mutant (Homo sapiens, UniProt P17931, E165H/INS164A/N166G/N167D/R168A).
T1 construct: The molecule used in this study is a truncated CRD domain of Gal-3; made in house; host or cells: Escherichia coli BL21 (DE3)
In words: ITC assay, ligand titrating mutant Gal-3-g1-L4. The conditions noted are these: for N, stochiometry (ITC): stochiometry fixed with a value of 1. Here is the method:
(§1) The mutants, Gal-1-g3-L4 and Gal-3-g1-L4, were designed by exchanging two loops, g1-L4 and g3-L4. These mutants were constructed using Quick Change Site Directed Mutagenesis method, and then the proteins were expressed and purified as above procedures.
(§2) The delayed time between injections is 180 s. For every ligands, at least three titrations were done. The dissociation constants (Kd) were calculated using the Origin Program and the experimental data were fitted to a one-set-of-sites model.
In general terms: Isothermal titration calorimetry measures the heat released or taken up as one component is titrated into another.

Test [2] concerns the target T2, human galectin-3 carbohydrate recognition domain (Gal-3 CRD) (Homo sapiens, UniProt P17931).
T2 construct: The molecule used in this study is a truncated CRD domain of Gal-3; made in house; host or cells: Escherichia coli BL21 (DE3)
In words: ITC assay, ligand titrating native Gal-3 CRD. The settings on record: 298 K. How it is done:
as §2

The target of test [3] is T3, human galectin-3 CRD (Gal-3 CRD) (Homo sapiens, UniProt P17931).
T3 construct: The molecule used in this study is a truncated CRD domain of Gal-3; made in house; host or cells: Escherichia coli BL21 (DE3)
Nature of the test: SPR assay, Gal-3 CRD over immobilized biotin labeled GM1. The settings on record: immobilized biotin labeled GM1 pentasaccharide, steady state affinity model, 298 K. How it is done: (§3) Biotin labeled GM1 pentasaccharide (from CFG) was dissolved into PBS buffer and connected covalently onto a streptavidin (SA) chip as the immobilized phase. […] Galectins in the sample buffer (20 mM PBS, pH7.5, 0.005% Tween 20) were as the flowing phase. Analytes with volume of 30 µl at various concentrations ordered from low to high were programmed to inject with a 30 µl/min flow rate under different sensorgrams. In order to correct for instrumental and concentration effects, a blank flow channel was used as reference. Specific binding analyses were identified by subtraction of the control channel. The kinetic analyses of molecular interactions were calculated according to the steady state affinity model by BIAcore T100 Evaluation software.
(In general: Surface plasmon resonance follows binding to a sensor surface in real time, without labels.)

In test [4] the target is T4, Gal-1-g3-L4 (Gal-1-51ENNR54) mutant (Homo sapiens, UniProt P09382, A56R/D55N/DEL52-52/G54N/H53E).
T4 construct: made in house; host or cells: Escherichia coli BL21 (DE3)
In words: ITC assay, ligand titrating mutant Gal-1-g3-L4. The conditions noted are these: mutant Gal-1-g3-L4, 298 K; for N, stochiometry (ITC): stochiometry fixed with a value of 1. How it is done:
as §1, §2

For the next test, the target named is T5, Gal-3-g1-L4 mutant (Homo sapiens, UniProt P17931, E165H/INS164A/N166G/N167D/R168A).
T5 construct: The molecule used in this study is a truncated CRD domain of Gal-3; made in house; host or cells: Escherichia coli BL21 (DE3)
In words: SPR assay, Gal-3-g1-L4 over immobilized biotin labeled GM1. The conditions noted are these: mutant Gal-3-g1-L4, immobilized biotin labeled GM1 pentasaccharide, steady state affinity model, 298 K. Here is the method:
as §1, §3

The target of test [5] is T6, human galectin-1 (Gal-1) (Homo sapiens, UniProt P09382).
T6 construct: made in house; host or cells: Escherichia coli BL21 (DE3)
Nature of the test: SPR assay, Gal-1 over immobilized biotin labeled GM1. The conditions noted are these: Gal-1, immobilized biotin labeled GM1 pentasaccharide, 298 K. Here is the method:
as §3

A further test concerns the target T7, Gal-1-g3-L4 mutant (Homo sapiens, UniProt P09382, A56R/D55N/DEL52-52/G54N/H53E).
T7 construct: made in house; host or cells: Escherichia coli BL21 (DE3)
In words: SPR assay, Gal-1-g3-L4 over immobilized biotin labeled GM1. The settings on record: mutant Gal-1-g3-L4, immobilized biotin labeled GM1 pentasaccharide, 298 K. Here is the method:
as §1, §3

The target in test [6] is T6, human galectin-1 (Gal-1). In words: ITC assay, ligand titrating native Gal-1. The conditions noted are these: Gal-1, 298 K. Here is the method:
as §2

“Also recorded” adds a separate entry of the source.

T6 sequence (P09382 whole entry): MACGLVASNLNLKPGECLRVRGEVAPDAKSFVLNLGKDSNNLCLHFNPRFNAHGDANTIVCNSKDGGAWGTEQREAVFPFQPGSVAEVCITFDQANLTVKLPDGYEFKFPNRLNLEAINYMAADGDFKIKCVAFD
T4 sequence (P09382 with tags, fused parts or gaps DEL52-52/H53E/G54N/D55N/A56R): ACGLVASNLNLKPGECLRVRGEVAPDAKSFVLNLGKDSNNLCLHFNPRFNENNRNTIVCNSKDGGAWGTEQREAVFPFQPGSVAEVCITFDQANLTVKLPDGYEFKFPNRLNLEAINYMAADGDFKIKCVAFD
T1 sequence (P17931 with tags, fused parts or gaps INS164A/E165H/N166G/N167D/R168A): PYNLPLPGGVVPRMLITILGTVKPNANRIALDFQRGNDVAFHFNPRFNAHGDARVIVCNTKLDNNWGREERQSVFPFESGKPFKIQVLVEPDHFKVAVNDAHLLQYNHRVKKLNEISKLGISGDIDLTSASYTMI
T2 sequence (P17931 118-248 limits assumed): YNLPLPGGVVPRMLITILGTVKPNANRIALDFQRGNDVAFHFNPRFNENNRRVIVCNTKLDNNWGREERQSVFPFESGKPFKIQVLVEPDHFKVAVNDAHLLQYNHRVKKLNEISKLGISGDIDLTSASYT
T7 sequence (P09382 with tags, fused parts or gaps DEL52-52/H53E/G54N/D55N/A56R): as the sequence (P09382 with tags, fused parts or gaps DEL52-52/H53E/G54N/D55N/A56R) above
T5 sequence (P17931 with tags, fused parts or gaps INS164A/E165H/N166G/N167D/R168A): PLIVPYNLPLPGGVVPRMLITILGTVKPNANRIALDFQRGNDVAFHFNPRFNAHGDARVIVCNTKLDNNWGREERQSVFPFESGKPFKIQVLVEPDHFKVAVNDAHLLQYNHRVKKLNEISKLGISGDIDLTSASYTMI
T3 sequence (P17931 118-248 limits assumed): as the sequence (P17931 118-248 limits assumed) above

In general, Kd refers to a measure of binding affinity in units of concentration. For `CC(=O)N[C@H]1[C@H](O[C@@H]2[C@H](O[C@]3(C(=O)O)C[C@H](O)[C@@H](NC(C)=O)[C@H]([C@H](O)[C@H](O)CO)O3)[C@@H](O)[C@H](O[C@H]3[C@H](O)[C@@H](O)C(O)O[C@@H]3CO)O[C@@H]2CO)O[C@H](CO)[C@H](O)[C@@H]1O[C@@H]1O[C@H](CO)[C@H](O)[C@H](O)[C@H]1O` (some centres unmarked) [GM1, Galβ1-3GalNAcβ1-4[NeuAcα2-3]Galβ1-4Glc], the “-ΔH (ITC)” value was 3.2 kcal/mol in test [1] (mutant Gal-3-g1-L4, 298 K); 4.0 kcal/mol in test [2] (Gal-3 CRD); 10.3 kcal/mol in test [4]. Besides, the Kd in test [1] (mutant Gal-3-g1-L4, 298 K) amounted to 415 µM; in test [3], 62 µM; in test [4], 568 µM; on Gal-3-g1-L4 mutant, 397 µM. For the same compound, the “ΔS (ITC)” value in test [1] (mutant Gal-3-g1-L4, 298 K) was 4.7 cal/mol/deg; in test [2] (Gal-3 CRD), 6.0 cal/mol/deg; in test [4], −19.8 cal/mol/deg. Also, the “N, stochiometry (ITC)” value in test [1] (mutant Gal-3-g1-L4, 298 K) stood at 1.00; in test [2] (Gal-3 CRD), 1.06; in test [4], 1.00. The “Kd (ITC)” value is “gains the TF-binding ability” in test [4]; “can not recognize and interact; also recorded: does not bind; also recorded: No affinity” on human galectin-1 (Gal-1) [6]. For the same compound, the results for the “Kd (SPR)” value on human galectin-1 (Gal-1) [5] and at Gal-1-g3-L4 mutant were “No affinity” and “Low affinity”, respectively.
Regarding Galβ1-3GalNAcα1-O-Ser/Thr [TF antigen], in test [2] (Gal-3 CRD), the “-ΔH (ITC)” value turned out to be 1.9 kcal/mol; the Kd was found to be 47 µM; the “N, stochiometry (ITC)” value stood at 1.04; the “ΔS (ITC)” value amounted to 13.5 cal/mol/deg. Further, on human galectin-1 (Gal-1) [6], the “-ΔH (ITC)” value worked out at 26.3 kcal/mol, the Kd worked out at 4000 µM and the “ΔS (ITC)” value was −77.2 cal/mol/deg. Moreover, at human galectin-1 (Gal-1) [6] (stochiometry fixed with a value of 1), the “N, stochiometry (ITC)” value is 1.00.
Regarding `CC(=O)N[C@H]1[C@@H](Oc2ccc([N+](=O)[O-])cc2)O[C@H](CO)[C@H](O)[C@@H]1O[C@@H]1O[C@H](CO)[C@H](O)[C@H](O)[C@H]1O` [TFN, TF p-nitrophenyl], in test [1] (mutant Gal-3-g1-L4, 298 K), the “-ΔH (ITC)” value came out at 3.9 kcal/mol, the dissociation constant Kd was determined as 543 µM, the “Kd (ITC)” value is listed as “very lower affinity” and the “ΔS (ITC)” value is given as 1.9 cal/mol/deg. Moreover, in test [1] (mutant Gal-3-g1-L4, 298 K), the “N, stochiometry (ITC)” value came out at 1.00. Also, the “affinity relative to native Gal-3 (ITC)” value in test [1] (mutant Gal-3-g1-L4 compared to native Gal-3, 298 K) was 12%. In addition, in test [2] (Gal-3 CRD), the “-ΔH (ITC)” value stood at 4.6 kcal/mol; the “N, stochiometry (ITC)” value is recorded as 1.21; the “ΔS (ITC)” value is 3.8 cal/mol/deg. In test [2] (native Gal-3 CRD as reference), the “affinity relative to native Gal-3 (ITC)” value came to 100%. In test [4], the “-ΔH (ITC)” value turned out to be 1.5 kcal/mol; binding was put at a Kd of 719 µM; the “Kd (ITC)” value was “can bind and interact”; the “ΔS (ITC)” value came out at 9.4 cal/mol/deg. For the same compound, the “N, stochiometry (ITC)” value in test [4] is given as 1.00. On human galectin-1 (Gal-1) [6], the “Kd (ITC)” value is on record as “can not recognize; also recorded: does not bind; also recorded: No affinity”.

(Values after publication PMC3176802, “Structural Basis for Distinct Binding Properties of the Human Galectins to Thomsen-Friedenreich Antigen” (PLoS ONE, 2011).)
